Test results from patent publication US9126948B2, “Pyrimidine-4,6-diamine derivatives as PI3K inhibitors” (Incyte Holdings Corporation, priority 2011, dated 2015).
Structures can show the parent of a compound that is named as a salt.

Key:
[1] = tested on: Pfeiffer cell line (diffuse large B cell lymphoma); experiment: Pfeiffer Cell Proliferation Assay; format: cell-based; conditions: Homo sapiens, [3H]-thymidine incorporation after 3-4 days
Method: Pfeiffer cell line (diffuse large B cell lymphoma) was purchased from ATCC (Manassas, Va.) and maintained in the culture medium recommended (RPMI and 10% FBS). To measure the anti-proliferation activity of the compounds, the Pfeiffer cells were plated with the culture medium (2×10^3 cells/well/[…]) into 96-well ultra-low binding plates (Corning, Corning, N.Y.), in the presence or absence of a concentration range of test compounds. After 3-4 days, [^3H]-thymidine (1 μCi/well) (PerkinElmer, Boston, Mass.) in PBS was then added to the cell culture for an additional 12 hours before the incorporated radioactivity was separated by filtration with water through GF/B filters (Packard Bioscience, Meridenj, Conn.) and measured by liquid scintillation counting with a TopCount (Packard Bioscience). Pfeiffer cell proliferation data for certain compounds described herein is provided below in Table 8.

PI3Kδ (p110δ/p85α) = PI3Kδ (p110δ/p85α) (Homo sapiens (Human), UniProt O00329); experiment: PI3Kδ Scintillation Proximity Assay; format: biochemical; conditions: 20 μM PIP2, 20 μM ATP, 4 nM PI3Kδ, 210 min; read-out: PI3Kδ SPA IC50
Excerpt: [γ-^33P]ATP (10 mCi/mL) was purchased from Perkin-Elmer (Waltham, Mass.). Lipid kinase substrate, D-myo-Phosphatidylinositol 4,5-bisphosphate (PtdIns(4,5)P2)D(+)-sn-1,2-di-O-octanoylglyceryl, 3-O-phospho linked (PIP2), CAS 204858-53-7, was purchased from Echelon Biosciences (Salt Lake City, Utah). PI3Kδ (p110δ/p85α) was purchased from Millipore (Bedford, Mass.). ATP, MgCl2, DTT, EDTA, MOPS and CHAPS were purchased from Sigma-Aldrich (St. Louis, Mo.). Wheat Germ Agglutinin (WGA) YSi SPA Scintillation Beads was purchased from GE healthcare life sciences (Piscataway, N.J.).
The kinase reaction was conducted in polystyrene 384-well matrix white plate from Thermo Fisher Scientific in a final volume of 25 μL. Inhibitors were first diluted serially in DMSO and added to the plate wells before the addition of other reaction components. The final concentration of DMSO in the assay was 0.5%. The PI3K assays were carried out at room temperature in 20 mM MOPS, pH 6.7, 10 mM MgCl2, 5 mM DTT and CHAPS 0.03%. Reactions were initiated by the addition of ATP, the final reaction mixture consisted of 20 μM PIP2, 20 μM ATP, 0.2 μCi [γ-^33P]ATP, 4 nM PI3Kδ. Reactions were incubated for 210 min and terminated by the addition of 40 μL SPA beads suspended in quench buffer: 150 mM potassium phosphate pH 8.0, 20% glycerol. 25 mM EDTA, 400 μM ATP. The final concentration of SPA beads was 1.0 mg/mL. After the plate sealing, plates were shaken overnight at room temperature and centrifuged at 1800 rpm for 10 minutes, the radioactivity of the product was determined by scintillation counting on Topcount (Perkin-Elmer). IC50 determination was performed by fitting the curve of percent control activity versus the log of the inhibitor concentration using the GraphPad Prism 3.0 software.

Chain of PI3Kδ (p110δ/p85α) (O00329 whole entry, species assumed): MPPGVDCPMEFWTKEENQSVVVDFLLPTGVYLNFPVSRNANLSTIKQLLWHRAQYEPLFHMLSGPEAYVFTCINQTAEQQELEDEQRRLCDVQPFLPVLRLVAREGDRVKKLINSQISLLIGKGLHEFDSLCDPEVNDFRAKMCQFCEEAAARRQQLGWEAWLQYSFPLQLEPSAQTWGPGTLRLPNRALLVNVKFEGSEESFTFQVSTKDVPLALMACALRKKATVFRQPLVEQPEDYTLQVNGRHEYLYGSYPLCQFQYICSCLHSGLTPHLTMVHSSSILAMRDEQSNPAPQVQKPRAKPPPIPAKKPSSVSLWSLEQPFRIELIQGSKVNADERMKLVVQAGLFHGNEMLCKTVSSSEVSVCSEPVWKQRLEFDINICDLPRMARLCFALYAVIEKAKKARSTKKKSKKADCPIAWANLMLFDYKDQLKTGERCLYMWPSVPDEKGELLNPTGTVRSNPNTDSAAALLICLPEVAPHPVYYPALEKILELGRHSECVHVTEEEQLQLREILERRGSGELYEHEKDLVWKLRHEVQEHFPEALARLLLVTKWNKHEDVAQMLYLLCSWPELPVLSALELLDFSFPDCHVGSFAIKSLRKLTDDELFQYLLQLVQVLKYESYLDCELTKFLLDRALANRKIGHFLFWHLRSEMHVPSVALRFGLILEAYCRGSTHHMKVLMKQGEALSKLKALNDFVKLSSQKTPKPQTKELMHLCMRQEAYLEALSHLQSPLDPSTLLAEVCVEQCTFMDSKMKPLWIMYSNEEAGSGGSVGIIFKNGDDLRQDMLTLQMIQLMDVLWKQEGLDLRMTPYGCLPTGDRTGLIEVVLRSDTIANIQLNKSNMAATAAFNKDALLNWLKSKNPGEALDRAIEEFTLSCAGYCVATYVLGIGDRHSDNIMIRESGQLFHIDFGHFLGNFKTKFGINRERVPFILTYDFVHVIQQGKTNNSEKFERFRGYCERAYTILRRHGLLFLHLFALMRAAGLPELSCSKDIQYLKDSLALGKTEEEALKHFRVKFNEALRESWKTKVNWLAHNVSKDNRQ
Chain of PI3Kδ (p110δ/p85α) (P27986 whole entry partner, species assumed): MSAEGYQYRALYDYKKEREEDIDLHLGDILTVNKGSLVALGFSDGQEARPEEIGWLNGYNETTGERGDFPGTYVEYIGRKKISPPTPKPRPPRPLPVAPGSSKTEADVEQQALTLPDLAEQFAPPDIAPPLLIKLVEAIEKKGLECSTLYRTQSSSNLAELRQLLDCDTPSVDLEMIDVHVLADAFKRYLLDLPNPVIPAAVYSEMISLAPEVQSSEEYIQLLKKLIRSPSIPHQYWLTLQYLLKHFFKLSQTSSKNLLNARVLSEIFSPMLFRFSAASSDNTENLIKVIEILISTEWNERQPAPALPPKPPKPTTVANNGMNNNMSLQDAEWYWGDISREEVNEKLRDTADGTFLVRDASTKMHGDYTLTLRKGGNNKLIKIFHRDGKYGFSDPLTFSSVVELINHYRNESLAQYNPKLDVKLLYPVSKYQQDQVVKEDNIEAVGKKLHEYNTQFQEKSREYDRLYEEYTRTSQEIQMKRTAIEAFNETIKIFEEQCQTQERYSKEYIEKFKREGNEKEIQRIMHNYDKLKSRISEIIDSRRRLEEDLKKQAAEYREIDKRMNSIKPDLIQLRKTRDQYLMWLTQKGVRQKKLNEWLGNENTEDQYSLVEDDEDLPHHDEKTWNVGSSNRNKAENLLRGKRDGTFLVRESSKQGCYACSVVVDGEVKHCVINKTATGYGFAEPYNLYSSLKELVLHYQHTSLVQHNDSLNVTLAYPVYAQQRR

| IC50 [1] [nM] | IC50 (PI3Kδ (p110δ/p85α)) [nM] | Structure (SMILES) |
| --- | --- | --- |
| < 20 | < 20 | COc1c(C(C)Nc2ncnc(N)c2C#N)cc(Cl)c(F)c1-c1cncc(F)c1 (stereo not shown) [Example 7, 4-amino-6-({1-[5-chloro-4-fluoro-3-(5-fluoropyridin-3-yl)-2-methoxyphenyl]ethyl}-amino) pyrimidine-5-carbonitrile] |
| < 20 |  | COc1c(C(C)Nc2ncnc(N)c2C#N)cc(Cl)c(C)c1-c1cncc(S(C)(=O)=O)c1 (stereo not shown) [Example 1, 4-Amino-6-[(1-{5-chloro-2-methoxy-4-methyl-3-[5-(methylsulfonyl)pyridin-3-yl]phenyl}ethyl)amino]pyrimidine-5-carbonitrile trifluoroacetic acid salt] |
|  | < 20 | COc1c(C(C)Nc2ncnc(N)c2C#N)cc(Cl)c(Cl)c1-c1ccc(S(C)(=O)=O)cc1 (stereo not shown) [Example 13, 4-Amino-6-({1-[5,6-dichloro-2-methoxy-4′-(methylsulfonyl)biphenyl-3-yl]ethyl}amino) pyrimidine-5-carbonitrile] |
|  | < 20 | COc1c(C(C)Nc2ncnc(N)c2C#N)cc(Cl)c(F)c1-c1ccc(S(C)(=O)=O)cc1 (stereo not shown) [Example 9, 4-amino-6-({1-[5-chloro-6-fluoro-2-methoxy-4′-(methylsulfonyl)biphenyl-3-yl]ethyl}amino) pyrimidine-5-carbonitrile] |
| < 20 | < 20 | COc1c(C(C)Nc2ncnc(N)c2C#N)cc(Cl)c(Cl)c1-c1cnc(N)nc1 (stereo not shown) [Example 14, 4-Amino-6-({1-[3-(2-aminopyrimidin-5-yl)-4,5-dichloro-2-methoxy-phenyl]ethyl}amino)pyrimidine-5-carbonitrile] |
| < 20 | < 20 | COc1c(C(C)Nc2ncnc(N)c2C#N)cc(Cl)c(C)c1-c1cncc(C(=O)N2CCOCC2)c1 (stereo not shown) [Example 5, 4-amino-6-[(1-{5-chloro-2-methoxy-4-methyl-3-[5-(morpholin-4-ylcarbonyl)pyridin-3-yl]phenyl}ethyl)-amino]pyrimidine-5-carbonitrile] |
| < 20 | < 20 | COc1c(C(C)Nc2ncnc(N)c2C#N)cc(Cl)c(F)c1-c1cncc(C#N)c1 (stereo not shown) [Example 6, 4-Amino-6-({1-[5-chloro-3-(5-cyanopyridin-3-yl)-4-fluoro-2-methoxyphenyl]ethyl}-amino)pyrimidine-5-carbonitrile] |
| < 20 | < 20 | COc1c(C(C)Nc2ncnc(N)c2C#N)cc(Cl)c(F)c1-c1cnc(N)nc1 (stereo not shown) [Example 10, 4-amino-6-({1-[3-(2-aminopyrimidin-5-yl)-5-chloro-4-fluoro-2-methoxyphenyl]-ethyl}amino)pyrimidine-5-carbonitrile] |
| < 20 | < 20 | COc1c(C(C)Nc2ncnc(N)c2C#N)cc(Cl)c(C)c1-c1cnc(N)nc1 (stereo not shown) [Example 3, 4-amino-6-({1-[3-(2-aminopyrimidin-5-yl)-5-chloro-2-methoxy-4-methyl-phenyl]ethyl}-amino)pyrimidine-5-carbonitrile] |
| < 20 | < 20 | COc1c(C(C)Nc2ncnc(N)c2C#N)cc(Cl)c(Cl)c1-c1cncc(S(C)(=O)=O)c1 (stereo not shown) [Example 11, 4-Amino-6-[(1-{4,5-dichloro-2-methoxy-3-[5-(methylsulfonyl)pyridin-3-yl]phenyl}ethyl)amino]pyrimidine-5-carbonitrile] |
| < 20 | < 20 | COc1c(C(C)Nc2ncnc(N)c2C#N)cc(Cl)c(C)c1-c1ccc(S(C)(=O)=O)cc1 (stereo not shown) [Example 4, 4-amino-6-({1-[5-chloro-2-methoxy-6-methyl-4′-(methyl-sulfonyl)biphenyl-3-yl]ethyl}amino) pyrimidine-5-carbonitrile] |
| < 20 | < 20 | COc1c(C(C)Nc2ncnc(N)c2C#N)cc(Cl)c(F)c1-c1cncc(S(C)(=O)=O)c1 (stereo not shown) [Example 8, 4-amino-6-[(1-{5-chloro-4-fluoro-2-methoxy-3-[5-(methyl-sulfonyl)pyridin-3-yl]phenyl}ethyl)amino]-pyrimidine-5-carbonitrile bis(trifluoroacetate)] |
| < 20 | < 20 | COc1c(C(C)Nc2ncnc(N)c2C#N)cc(Cl)c(Cl)c1-c1cncc(F)c1 (stereo not shown) [Example 12, 4-Amino-6-({1-[4,5-dichloro-3-(5-fluoropyridin-3-yl)-2-methoxyphenyl]ethyl}amino) pyrimidine-5-carbonitrile] |

| Structure (SMILES) | IC50 [1] [nM] | IC50 (PI3Kδ (p110δ/p85α)) [nM] |
| --- | --- | --- |
| COc1c(C(C)Nc2ncnc(N)c2C#N)cc(Cl)c(C)c1-c1cncc(C#N)c1 (stereo not shown) [Example 2, 4-amino-6-({1-[5-chloro-3-(5-cyano-pyridin-3-yl)-2-methoxy-4-methylphenyl]ethyl}amino)-pyrimidine-5-carbonitrile] | < 20 | < 20 |
